From US7973145B2, “Sulfonated sugar compounds, pharmaceutical compositions which contain the same, and methods of treating tumors with the same” (priority 2007, dated 2011)

How the values were obtained:
[1] = tested on: human vascular endothelial cells and human fibrocytes; assay: Tube formation inhibition test using vascular endothelial cell-fibrocyte cocultivation system (angiogenesis kit KZ-1000); format: cell-based; settings: FIG. 10, combined with 2 Gy radiation, calcium(salt)-substituted compound, 10 ng/ml VEGF-A
Protocol: Using a angiogenesis kit (KZ-1000) manufactured by Kurabo Industries Ltd., which is a cocultivation system for human vascular endothelial cells and human fibrocytes, the effects of αSQAP C10:0, αSQAP C14:0, αSQAP C18:0, αSQAP C22:0, βSQAP C18:0, and βSQAP C18:1 on tube formation were examined. Cultivation for tube formation using the kit was conducted according to the manufacturer's instruction manual.
Using a medium containing a final concentration of 10 ng/ml of VEGF-A and being designed specifically for angiogenesis, the respective SQAP compounds were prepared to have intended concentrations. On Day 1 of the cell cultivation, special media each containing SQAP compounds at the respective concentrations and DMSO (negative control) were added to the cultivation systems. The systems were cultivated for 30 minutes, and irradiated with 2 Gy of cobalt 60. Thereafter, on Days 4, 7, and 10 of the cultivation, the media were replaced with newly prepared special media containing SQAP or DMSO. The media were removed on Day 11 of the cultivation, fixed with 70% ethanol, and the formed tubes were stained with anti-human CD31 antibody. The stained figures were photographed under an optical microscope, and the quantity of tube formation was calculated by the image analysis. The angiogenesis index was calculated according to the manufacturer's instruction manual.

[2] = tested on: Human esophageal squamous cell carcinoma cells TE-8; assay: Radiosensitizing effect test, tumor-bearing mouse, human esophageal squamous cell carcinoma; format: in vivo, KSN nude mice
Protocol: (§1) The radiosensitizing effect was examined through tumor-bearing mouse experiment.
Human esophageal squamous cell carcinoma cells TE-8 were transplanted into the right femoral region of KSN nude mice in a ratio of 1×10^6 cells per individual. Subsequently, the mice were bred for about 14 days to form a tumor mass of about 150 mm^3 in each individual. Thereafter, four mice were assigned to each of the following groups (1) to (4):
(§2) The drug was administered from Day 1 to Day 5, 2 mg/kg once a day. The subjects were exposed to radiation emitted from an X-ray generator (HS-225, manufactured by Shimadzu Co., Ltd.) at a dose of 2 Gy on Day 1 and Day 4. The tumor volume was calculated according to the calculation formula: (minor axis)^2×major axis×0.5.
This experiment was conducted in the same manner as Example V-1, except that the drug dose administered from Day 1 to Day 5 was 1 mg/kg once a day, and the radiation dose was 4 Gy, and the tumor volume was measured.
Human esophageal squamous cell carcinoma cells TE-8 were transplanted into the right femoral region of KSN nude mice in a ratio of 1×10^6 cells per individual. After a tumor mass of about 50 mm^3 was formed in each individual, four mice were assigned to each of the four groups (1) to (4):
The drug was administered intraperitoneally from Day 1 to Day 5, 1 mg/kg once a day. The subjects were exposed to radiation emitted from an X-ray generator (HS-225, manufactured by Shimadzu Co., Ltd.) at a dose of 4 Gy on Day 1 and Day 4.

[3] = tested on: bone marrow cells (immature erythrocytes); assay: Micronucleus test by rat intravenous administration; format: in vivo; settings: male SD rats
Protocol: Five male SD rats were assigned to each of the six groups (1) to (6): The test solutions for (1) to (5) contained a normal saline solution containing 10% CREMOPHOR EL as the solvents, and the above-described doses were administered to the rats twice in total for two consecutive days. To the positive control group, the above-described dose was administered once. About 24 hours after the administration, bone marrow smears were prepared. Two thousands of immature erythrocytes were counted for each individual, and the incidence of immature erythrocytes having a micronucleus was calculated. As the index of marrow proliferation suppression, the proportion of immature erythrocytes contained in 1000 erythrocytes was calculated. […] In addition, no influence was found on the marrow proliferation suppression in the test substance-administered group.

[4] = Solubility measurement in injectable water; format: physicochemical; settings: 1 g in 5 ml of injectable water
[5] = tested on: Human colonic adenocarcinoma cells SW480; assay: Radiosensitizing effect test, tumor-bearing mouse, human colonic adenocarcinoma; format: in vivo, KSN nude mice
Protocol: as §1
Human colonic adenocarcinoma cells SW480 were transplanted into the right femoral region of KSN nude mice in a ratio of 1×10^6 cells per individual. Subsequently, the mice were bred for about 14 days to form a tumor mass of about 150 mm^3 in each individual.
as §2
Human colonic adenocarcinoma cells SW480 were transplanted into the right femoral region of KSN nude mice in a ratio of 2×10^6 cells per individual. After a tumor mass of about 50 mm^3 was formed in each individual, four mice were assigned to each of the four groups (1) to (4):
The drug was administered from the tail vein from Day 1 to Day 5, 1 mg/kg once a day. The subjects were exposed to radiation emitted from an X-ray generator (HS-225, manufactured by Shimadzu Co., Ltd.) at a dose of 2 Gy on Day 1 and Day 4.

[6] = tested on: Human colonic adenocarcinoma cells SW480; assay: Antineoplastic effect test (drug alone), tumor-bearing mouse; format: in vivo, KSN nude mice; settings: Example VI, FIG. 9; calcium(salt)-substituted compound alone, intraperitoneally 20 mg/kg once a day Day 1 to Day 14
Protocol: Human colonic adenocarcinoma cells SW480 were transplanted into the right femoral region of KSN nude mice in a ratio of 2×10^6 cells per individual. After a tumor mass of about 50 mm^3 was formed in each individual, four mice were assigned to each of the two groups (1) and (2):
The drug was administered intraperitoneally from Day 1 to Day 14, 20 mg/kg once a day.

SD rats = assay: Single dose (acute) toxicity test; format: in vivo; settings: female and male SD rats, single dose via tail vein
Protocol: Using αSQAP C18:0, an acute toxicity test was conducted on rats. Five female and five male SD rats of 5 to 6 weeks old were assigned to each of the groups (1) to (7):
The test solution for (1) and (4) to (7) contained a normal saline solution containing 10% CREMOPHOR EL, (2) contained a normal saline solution containing 2.5% CREMOPHOR EL, and (3) contained a normal saline solution containing 5% CREMOPHOR EL as the solvents.

[7] = tested on: Salmonella typhimurium and Escherichia coli indicator bacterial strains; assay: Reverse mutation assay (Ames test); settings: 2 μg to 5000 μg per plate, presence or absence of S9 mix, all five strains
[8] = final concentrations of 5 and 10 μM
[9] = final concentrations of 5, 10, and 20 μM
[10] = intravenous, 25 to 200 mg/kg twice for two consecutive days
[11] = Examples V-5 and V-6, FIG. 7 and 8, calcium(salt)-substituted compound, intraperitoneally 1 mg/kg once a day Day 1 to Day 5 plus X-ray 4 Gy on Day 1 and Day 4

## CCCCCCCC/C=C\CCCCCCCC(=O)OCCCO[C@@H]1O[C@H](CS(=O)(=O)[O-])[C@@H](O)[C@H](O)[C@H]1O.[Na+] [βSQAP C18:1, 3-O-(6-sulfo-β-D-quinovopyranosyl)-1-O-oleoyl-propane-1,3-diol sodium salt]
[1]; [8]
  tube formation: inhibited tube formation in a concentration-dependent manner

## CCCCCCCCCCCCCCCCCC(=O)OCC(O)CO[C@H]1O[C@H](CS(=O)(=O)[O-])[C@@H](O)[C@H](O)[C@H]1O.[Na+] (stereo partly drawn) [αSQMG C18:0, 3-O-(6-sulfo-α-D-quinovopyranosyl)-1-O-stearoyl-glycerol sodium salt, reference compound]
[2]; Example V-1, FIG. 3, 2 mg/kg once a day Day 1 to Day 5 plus X-ray 2 Gy on Day 1 and Day 4
  increase of the tumor volume, drug plus radiotherapy, in comparison with other groups: most suppressed

## CCCCCCCCCCCCCCCCCCCCCC(=O)OCCCO[C@H]1O[C@H](CS(=O)(=O)[O-])[C@@H](O)[C@H](O)[C@H]1O.[Na+] [αSQAP C22:0, 3-O-(6-sulfo-α-D-quinovopyranosyl)-1-O-behenoyl-propane-1,3-diol sodium salt]
[1]; [9]
  tube formation: inhibited tube formation in a concentration-dependent manner

## 3-O-(6-sulfo-α-D-quinovopyranosyl)-1-O-stearoyl-propane-1,3-diol calcium salt [αSQAP C18:0 calcium salt]
[3]; intravenous, 25, 50, 100, 200 mg/kg twice for two consecutive days, bone marrow about 24 hours after
  incidence of micronuclei (immature erythrocytes having a micronucleus) in comparison with the non-administered group: no significant increase
[3]; [10]
  chromosomal aberration in bone marrow cells: inducing no chromosomal aberration
  marrow proliferation suppression (proportion of immature erythrocytes in 1000 erythrocytes): no influence

## CCCCCCCCCCCCCCCCCC(=O)OCCCO[C@@H]1O[C@H](CS(=O)(=O)[O-])[C@@H](O)[C@H](O)[C@H]1O.[Na+] [βSQAP C18:0, 3-O-(6-sulfo-β-D-quinovopyranosyl)-1-O-stearoyl-propane-1,3-diol sodium salt]
[1]; [8]
  tube formation: inhibited tube formation in a concentration-dependent manner

## CCCCCCCCCC(=O)OCCCO[C@H]1O[C@H](CS(=O)(=O)[O-])[C@@H](O)[C@H](O)[C@H]1O.[Na+] [αSQAP C10:0, 3-O-(6-sulfo-α-D-quinovopyranosyl)-1-O-decanoyl-propane-1,3-diol sodium salt]
[2]; [11]
  increase of the tumor volume, drug plus radiotherapy, in comparison with other groups: most suppressed
[1]; [9]
  tube formation: inhibited tube formation in a concentration-dependent manner

## CCCCCCCCCCCCCC(=O)OCCCO[C@H]1O[C@H](CS(=O)(=O)[O-])[C@@H](O)[C@H](O)[C@H]1O.[Na+] [αSQAP C14:0, 3-O-(6-sulfo-α-D-quinovopyranosyl)-1-O-myristoyl-propane-1,3-diol sodium salt]
[1]; [9]
  tube formation: inhibited tube formation in a concentration-dependent manner

## CCCCCCCCCCCCCCCCCC(=O)OCCCO[C@H]1O[C@H](CS(=O)(=O)[O-])[C@@H](O)[C@H](O)[C@H]1O.[Na+] [αSQAP C18:0, 3-O-(6-sulfo-α-D-quinovopyranosyl)-1-O-stearoyl-propane-1,3-diol sodium salt]
[4]; 25° C.
  solubility evaluation by the criteria of the general rules Japanese Pharmacopeia: readily soluble
[4]; strongly shaken at 25° C.
  dissolution in injectable water: immediately dissolved
[2]; Example V-1, FIG. 3, drug alone (un-irradiated), 2 mg/kg once a day Day 1 to Day 5, versus 2 Gy on Day 1 and Day 4 alone
  suppression of the increase of the tumor volume compared with radiotherapy alone: at the same level
[2]; Example V-1, FIG. 3, drug alone (un-irradiated), 2 mg/kg once a day Day 1 to Day 5, from about Day 10
  increment of the tumor volume versus non-administered, un-irradiated group: fell below that in the (1) non-administered, un-irradiated group
[2]; Example V-2, FIG. 4, 1 mg/kg once a day Day 1 to Day 5 plus X-ray 4 Gy
  increase of the tumor volume, drug plus radiotherapy, in comparison with other groups: most strongly suppressed
[2]; Example V-2, FIG. 4, drug alone (un-irradiated), 1 mg/kg once a day Day 1 to Day 5
  increment in the tumor volume versus non-administered, un-irradiated group: smaller than that in the (1) non-administered, un-irradiated group
[2]; [11]
  increase of the tumor volume, drug plus radiotherapy, in comparison with other groups: most suppressed
[5]; Example V-3, FIG. 5, 2 mg/kg once a day Day 1 to Day 5 plus X-ray 2 Gy on Day 1 and Day 4
  increase of the tumor volume, drug plus radiotherapy: markedly suppressed
[5]; Example V-4, FIG. 6, calcium(salt)-substituted compound, tail vein 1 mg/kg once a day Day 1 to Day 5 plus X-ray 2 Gy on Day 1 and Day 4
  increase of the tumor volume, drug plus radiotherapy, in comparison with other groups: most suppressed
[6]
  increase of the tumor volume in comparison with the non-administered group: markedly suppressed
[1]; [9]
  tube formation: inhibited tube formation in a concentration-dependent manner
SD rats; 25 to 800 mg/kg, observed for two days
  mortality during the test period: No individual died
SD rats; estimated
  lethal dose: higher than 800 mg/kg
[7]
  mutagenicity: negative
[7]; calcium(salt)-substituted compound
  number of revertant colonies: did not increase
